Each block holds one compound with its values, some of them ahead of it. Square brackets hold non-standard residues; d marks the D form. Peptide text beside a SMILES is read from it. * marks the point of attachment. DON = [N-]=[N+]=CC(=O)CC[C@H](N)C(=O)O; Cbz = O=C(OCc1ccccc1)*
Columns and labels:
Experiment in all cases: ELISA, pentylamine-biotin incorporation into coated N,N-dimethylcasein
Assay type in all cases: biochemical
zTG2a [1] = biological target: T1, zTG2a (Danio rerio, UniProt Q66L63); conditions: 50 ng enzyme, 0.2 mM pentylamine-biotin, 5 mM CaCl2, 10 mM DTT, pH 8.0, 37 °C, 1 h; GTP 100 µM (methods) or 100 mM (figure legend)
T1 construct: gene tgm2a; full-length CDS in pET30a(+), His6-tagged (text: C-terminal His-tag; reverse primer keeps stop codon), E. coli BL21(DE3), Ni-NTA; primer-encoded N-terminus MERVVE, C-terminus LVIYE
T1 sequence (Q66L63 1-679): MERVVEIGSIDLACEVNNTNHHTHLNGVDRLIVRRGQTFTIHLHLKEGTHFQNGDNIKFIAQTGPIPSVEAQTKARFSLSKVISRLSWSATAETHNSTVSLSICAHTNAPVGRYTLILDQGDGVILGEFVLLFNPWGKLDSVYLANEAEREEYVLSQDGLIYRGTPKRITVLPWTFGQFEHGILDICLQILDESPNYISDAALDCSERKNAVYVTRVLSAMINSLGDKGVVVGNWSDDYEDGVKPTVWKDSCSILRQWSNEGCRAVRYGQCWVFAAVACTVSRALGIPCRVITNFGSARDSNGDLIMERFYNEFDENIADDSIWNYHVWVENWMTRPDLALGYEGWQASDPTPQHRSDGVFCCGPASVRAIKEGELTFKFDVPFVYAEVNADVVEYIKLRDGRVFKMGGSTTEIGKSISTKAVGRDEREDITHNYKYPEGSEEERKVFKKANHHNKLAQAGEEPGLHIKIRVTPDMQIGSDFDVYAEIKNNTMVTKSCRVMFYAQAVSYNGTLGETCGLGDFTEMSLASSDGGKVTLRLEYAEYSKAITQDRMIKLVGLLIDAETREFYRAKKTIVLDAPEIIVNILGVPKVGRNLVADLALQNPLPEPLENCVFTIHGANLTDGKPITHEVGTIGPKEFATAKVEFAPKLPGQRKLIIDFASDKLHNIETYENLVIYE

hTG2 [2] = biological target: T2, hTG2 (Homo sapiens, UniProt P21980); conditions: 50 ng enzyme, 0.2 mM pentylamine-biotin, 5 mM CaCl2, 10 mM DTT, pH 8.0, 37 °C, 1 h; GTP 100 µM (methods) or 100 mM (figure legend)
T2 construct: gene TGM2; recombinant hTG2 used as positive control; source and tag of purified protein not detailed; 77 kDa
T2 sequence (P21980 2-687): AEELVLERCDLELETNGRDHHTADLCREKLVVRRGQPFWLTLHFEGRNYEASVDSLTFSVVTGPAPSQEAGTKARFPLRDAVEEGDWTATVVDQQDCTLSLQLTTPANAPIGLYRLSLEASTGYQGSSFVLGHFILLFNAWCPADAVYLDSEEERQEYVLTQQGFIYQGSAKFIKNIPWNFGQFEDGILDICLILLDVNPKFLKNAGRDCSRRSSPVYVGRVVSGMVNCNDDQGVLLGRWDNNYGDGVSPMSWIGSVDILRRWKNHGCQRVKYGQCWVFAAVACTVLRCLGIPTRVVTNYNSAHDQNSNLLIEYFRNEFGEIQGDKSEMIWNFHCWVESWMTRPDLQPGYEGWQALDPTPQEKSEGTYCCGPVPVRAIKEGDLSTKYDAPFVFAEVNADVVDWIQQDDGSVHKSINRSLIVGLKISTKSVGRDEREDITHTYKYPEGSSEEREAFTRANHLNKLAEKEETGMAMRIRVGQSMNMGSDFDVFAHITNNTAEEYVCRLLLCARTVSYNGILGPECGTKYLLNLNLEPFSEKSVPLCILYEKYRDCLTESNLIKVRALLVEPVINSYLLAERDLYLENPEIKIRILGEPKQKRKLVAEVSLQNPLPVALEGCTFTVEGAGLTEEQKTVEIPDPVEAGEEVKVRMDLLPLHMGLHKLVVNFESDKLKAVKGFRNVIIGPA

zTG2b [3] = biological target: T3, zTG2b (Danio rerio, UniProt A0ACM8QA61); conditions: 50 ng enzyme, 0.2 mM pentylamine-biotin, 5 mM CaCl2, 10 mM DTT, pH 8.0, 37 °C, 1 h; methods print inhibitor doses as mM
T3 construct: gene tgm2b; full-length CDS in pET30a(+), His6-tagged (text: C-terminal His-tag; reverse primer keeps stop codon), E. coli BL21(DE3), Ni-NTA; primer-encoded N-terminus MALDIG, C-terminus VIIGK
T3 sequence (A0ACM8QA61 1-679): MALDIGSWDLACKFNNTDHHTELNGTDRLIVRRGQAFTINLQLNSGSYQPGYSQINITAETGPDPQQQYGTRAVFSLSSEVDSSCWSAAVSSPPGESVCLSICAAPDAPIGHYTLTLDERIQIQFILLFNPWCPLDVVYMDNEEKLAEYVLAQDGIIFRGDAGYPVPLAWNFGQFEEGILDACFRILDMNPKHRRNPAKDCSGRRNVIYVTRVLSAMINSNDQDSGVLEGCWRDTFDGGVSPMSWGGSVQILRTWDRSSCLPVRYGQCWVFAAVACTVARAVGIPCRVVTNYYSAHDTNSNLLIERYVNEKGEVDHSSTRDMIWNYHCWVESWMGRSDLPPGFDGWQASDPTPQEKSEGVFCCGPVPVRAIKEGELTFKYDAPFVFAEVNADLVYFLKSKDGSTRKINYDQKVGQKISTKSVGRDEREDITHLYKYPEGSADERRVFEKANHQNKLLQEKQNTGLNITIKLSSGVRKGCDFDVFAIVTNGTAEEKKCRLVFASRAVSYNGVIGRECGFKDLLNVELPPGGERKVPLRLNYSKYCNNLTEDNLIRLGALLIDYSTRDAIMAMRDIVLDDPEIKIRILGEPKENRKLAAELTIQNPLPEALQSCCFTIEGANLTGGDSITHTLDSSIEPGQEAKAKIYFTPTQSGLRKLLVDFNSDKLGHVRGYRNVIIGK

zTG2a [4] = biological target: T1, zTG2a
zTG2like [5] = biological target: T4, zTG2like (Danio rerio, UniProt A3KQ87)
T4 construct: gene tgm2l; full-length CDS in pET30a(+), His6-tagged (text: C-terminal His-tag; reverse primer keeps stop codon), E. coli BL21(DE3), Ni-NTA; primer-encoded N-terminus MASYNA, C-terminus AVPEI
T4 sequence (A3KQ87 1-692): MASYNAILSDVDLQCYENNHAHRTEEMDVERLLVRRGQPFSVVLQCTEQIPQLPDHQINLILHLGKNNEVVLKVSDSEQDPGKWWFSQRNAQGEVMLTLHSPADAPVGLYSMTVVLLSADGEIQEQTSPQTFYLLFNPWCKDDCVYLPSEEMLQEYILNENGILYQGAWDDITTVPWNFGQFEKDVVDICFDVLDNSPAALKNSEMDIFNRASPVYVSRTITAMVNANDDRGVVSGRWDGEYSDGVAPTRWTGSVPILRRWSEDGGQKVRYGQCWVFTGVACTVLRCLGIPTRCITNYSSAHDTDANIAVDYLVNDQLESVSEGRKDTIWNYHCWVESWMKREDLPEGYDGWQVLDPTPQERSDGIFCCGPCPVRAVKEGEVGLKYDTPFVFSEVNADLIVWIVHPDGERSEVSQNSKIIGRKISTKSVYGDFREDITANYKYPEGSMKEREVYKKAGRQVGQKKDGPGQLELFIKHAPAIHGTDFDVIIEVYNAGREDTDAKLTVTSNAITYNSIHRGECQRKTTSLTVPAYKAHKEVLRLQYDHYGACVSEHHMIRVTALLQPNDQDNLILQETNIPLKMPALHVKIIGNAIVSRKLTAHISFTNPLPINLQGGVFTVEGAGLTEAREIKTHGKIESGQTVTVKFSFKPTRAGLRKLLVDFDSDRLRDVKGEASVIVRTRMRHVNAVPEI

zTG2a [6] = biological target: T1, zTG2a; conditions: amine co-substrate with N,N-dimethylcasein; 5 mM CaCl2, 10 mM DTT, pH 8.0, 37 °C
From the text: ELISA, pentylamine-biotin incorporation into coated N,N-dimethylcasein on zTG2a | incorporate pentylamine-biotin into the substrate N,N-dimethylcasein in solution. All three zebrafish TGs2

hTG2 [7] = biological target: T2, hTG2; conditions: amine co-substrate with N,N-dimethylcasein; 5 mM CaCl2, 10 mM DTT, pH 8.0, 37 °C
zTG2like [8] = biological target: T4, zTG2like; conditions: amine co-substrate with N,N-dimethylcasein; 5 mM CaCl2, 10 mM DTT, pH 8.0, 37 °C
From the text: ELISA, pentylamine-biotin incorporation into coated N,N-dimethylcasein on zTG2like | incorporate pentylamine-biotin into the substrate N,N-dimethylcasein in solution. All three zebrafish TGs2

zTG2b [9] = biological target: T3, zTG2b; conditions: amine co-substrate with N,N-dimethylcasein; 5 mM CaCl2, 10 mM DTT, pH 8.0, 37 °C
From the text: ELISA, pentylamine-biotin incorporation into coated N,N-dimethylcasein on zTG2b | incorporate pentylamine-biotin into the substrate N,N-dimethylcasein in solution. All three zebrafish TGs2

Structure (SMILES): Nc1nc2c(ncn2[C@@H]2O[C@H](COP(=O)(O)OP(=O)(O)OP(=O)(O)O)[C@@H](O)[C@H]2O)c(=O)[nH]1 [GTP]
- % inhibition (zTG2a [1]): zTG2a is the only zebrafish TG2 whose activity is affected by the presence of GTP
- % inhibition (hTG2 [2]): the inhibitory effect of GTP was only one third of that observed for the human enzyme

- % inhibition at 25 μM (zTG2b [3]): ~ 50%
- inhibition at 25 µM (zTG2a [4]): ~50%
- inhibition at 25 µM (zTG2like [5]): ~50%
Structure (SMILES): COC(=O)[C@H](CC(C)C)NC(=O)[C@@H]1CCCN1C(=O)[C@@H](NC(=O)[C@H](CCC(=O)C=[N+]=[N-])NC(=O)OCc1ccccc1)C(C)C [ZDON] (Cbz-[DON]VPL-OMe)

Structure (SMILES): NCCCCCNC(=O)CCCC[C@@H]1SC[C@@H]2NC(=O)N[C@@H]21 [pentylamine-biotin]
- ELISA, pentylamine-biotin incorporation into coated N,N-dimethylcasein (zTG2a [6]): incorporate pentylamine-biotin into the substrate N,N-dimethylcasein in solution. All three zebrafish TGs2
- ELISA, pentylamine-biotin incorporation into coated N,N-dimethylcasein (hTG2 [7]): as well as the human enzyme were able to mediate the transamidation reaction
- ELISA, pentylamine-biotin incorporation into coated N,N-dimethylcasein (zTG2like [8]): incorporate pentylamine-biotin into the substrate N,N-dimethylcasein in solution. All three zebrafish TGs2
- ELISA, pentylamine-biotin incorporation into coated N,N-dimethylcasein (zTG2b [9]): incorporate pentylamine-biotin into the substrate N,N-dimethylcasein in solution. All three zebrafish TGs2
